Reference: patent publication US7842808B2, “Anti-migraine spirocycles” (Bristol-Myers Squibb Company, priority 2002, dated 2010)

What was measured:
[1] = molecular target: T1, human CGRP receptor (SK-N-MC cells) (Homo sapiens, UniProt O60894+Q16602); assay: Schild analysis of CGRP stimulated cAMP production; type: cell-based; details: Schild plot slope
T1 construct: SK-N-MC cells that endogenously express the human CGRP receptor; endogenous in cells; host or cells: SK-N-MC cells
Method: Functional Antagonism. Antagonism of the compounds of invention was determined by measuring the formation of cyclic AMP (adenosine 3′5′-cyclic monophosphate) in SK-N-MC cells that endogenously express the human CGRP receptor. CGRP receptor complex is coupled with Gs protein and CGRP binding to this complex leads to the cyclic AMP production via Gs—dependent activation of an adenylate cyclase (Juaneda C et al., TiPS, 2000; 21:432-438; incorporated by reference herein). Consequently, CGRP receptor antagonists inhibit CGRP-induced cyclic AMP formation in SK-N-MC cells (Doods H et al., Br J Pharmacol, 2000; 129(3):420-423); incorporated by reference herein). For cyclic AMP measurements SK-N-MC cells were incubated with 0.3 nM CGRP alone or in the presence of various concentrations of the compounds of invention for 30 min at room temperature. Compounds of invention were pre-incubated with SK-N-MC cells for 15 min before the addition of CGRP to allow receptor occupancy (Edvinsson et al., Eur J Pharmacol, 2001, 415:39-44; incorporated by reference herein). Cyclic AMP was extracted using the lysis reagent and its concentration was determined by radioimmunoassay using RPA559 cAMP SPA Direct Screening Assay Kit (Amersham Pharmacia Biotech). IC50 values were calculated using Excel fit.
Schild Analysis. Schild analysis can be used to characterize the nature of antagonism of the compounds of invention. The dose response of CGRP stimulated cAMP production was generated either with CGRP alone, or in the presence of various concentrations of compounds of invention. The antagonist dose is plotted as X against the dose ratio (defined as IC50 of agonist with the presence of the compounds divided by the IC50 of the agonist alone) minus 1 as Y. Linear regression was then performed with both X and Y axis log-transformed. […] Kb is the dissociation constant of the antagonist.

[2] = system: human cerebral vessels (CGRP-induced dilation); assay: Ex Vivo Human Cerebral Artery Assay, reversal of CGRP-induced relaxation; details: reversal of 1 nM hCGRP-induced relaxation, vessels pre-contracted with 10 mM KCl
Description: Rationale and Overview. To provided direct evidence of the ability for novel compounds to reverse CGRP-induced dilation in human cerebral vessels, an ex vivo assay was design. Briefly, isolated vessel rings were mounted in a tissue bath where vessels were pre-contracted with potassium chloride (KCl) and fully dilated with hCGRP, then this relaxation was reversed by the cumulative addition of CGRP-receptor antagonists (complete details follow).
Tissue Samples. Autopsy samples of human arteries were obtained from vendors (ABS Inc. or NDRI). All vessels were transported on ice-cold HEPES buffer (composition in mM: NaCl 130, KCl 4, KH2PO4 1.2, MgSO4 1.2, CaCl2 1.8, Glucose 6, NaHCO3 4, HEPES 10, EDTA 0.025). Upon receipt, the vessels were placed in cold Kreb's buffer (composition in mM: NaCl 118.4, KCl 4.7, KH2PO4 1.2, MgSO4 1.2, CaCl2 1.8, Glucose 10.1, NaHCO3 25) saturated with carbogen (5% CO2 and 95% oxygen).
Isolated Tissue Baths. The vessels were cleaned of connective tissues and cut into cylindrical segments of 4-5 mm in length. The vessels were then mounted in tissue baths between two stainless steel hooks; one of which is fixed and the other of which was connected to a force displacement transducer. The vessel tension was continuously recorded using a data acquisition system (Powerlab, ADInstruments, Mountain View, Calif.) connected to the transducer. The tissue baths containing Krebs buffer and mounted vessels were temperature (37° C.) and pH (7.4) controlled with continuous bubbling of carbogen. The artery segments were allowed to equilibrate for about 30-45 min until a stable resting tone was achieved. Prior to the assay, vessels were primed (conditioned) with 100 mM KCl and subsequently washed. The vessels were pre-contracted with 10 mM KCl and fully dilated with 1 nM hCGRP. Concentration-response curves to CGRP-receptor antagonists were performed by the cumulative addition of drugs in half log units in fully dilated vessels. At each concentration, the effects of the drugs were expressed as % reversal of CGRP-induced relaxation in each vessel. The actual assay and data analysis were performed for each vessel individually, fitting the concentration-response data to a four parameter logistic function by non-linear regression analysis, to estimate the EC50 values.

[3] = system: CGRP-induced increase in laser Doppler facial blood flow; assay: Non-terminal laser Doppler facial blood flow model in non-human primate; type: in vivo, common marmoset (Callithrix jacchus); details: for % Inhibition of CGRP-induced increase in laser Doppler facial blood flow: iv, CGRP 10 μg/kg; for inhibition of CGRP-induced increase in laser Doppler facial blood flow (in words): delivered prior to hαCGRP (pre-treatment)
Description: Overview. […] Non-human primates (e.g., marmosets) are the only animals known to have human-like CGRP receptor pharmacology conferred by the presence of the specific amino acid residue (Trp74) in their RAMP1 sequence which is responsible for the phenotype of the human receptor (Mallee et al. J Biol Chem 2002 277:14294). […] Peptide and small-molecule CGRP-receptor antagonists were used to validate the non-human primate model.
Animals. Adult male and female common marmosets (Callithrix jacchus) purchased from Harlan and weighing 350-550 g served as subjects. Other mammals endogenously expressing RAMP1 having Trp 74 or transgenic mammals with humanized RAMP1 having Trp 74 can also be employed in A compound described herein.
Anesthesia & Surgical Preparation. Animals are anesthetized by isoflurane inhalation in an induction chamber (4-5% rapid induction, maintained with 1-2.5%; Solomon et al., 1999). Anesthesia is maintained by delivering a constant supply of air:oxygen (50:50) and isoflurane via face mask, or by intubation and ventilation (with blood gas monitoring). Body temperature is maintained at 38±0.5° C. by placement on an automated temperature controlled surface with rectal probe. A small area of fur (approx. 1.5 cm square) is removed from one or both sides of the face by application of a depilatory cream and/or shaving. Surgical areas are clipped and prepared with betadine. An i.v. line is placed in any accessible vein for the administration of test compounds and CGRP-receptor agonist and, if needed, withdrawal of blood samples (max 2.5 ml, 10%) for blood gas monitoring and content analysis. A solution of 5% dextrose is administered i.v. in order to maintain blood sugar levels. Anesthesia depth is monitored by measuring blood pressure and heart rate using a non-invasive arm cuff method and a pulse oximeter, respectively. Guanethidine 5-10 mg/kg i.v., supplemented with 5 mg/kg i.v. as needed, may be given to stabilize the peak flux in facial blood flow seen with repeated stimulation-induced changes in blood flow (Escott et al., 1999; incorporated by reference herein). Microvascular blood flow is monitored by attaching a self adhesive laser Doppler flow probe to the facial skin.
Compound Administration Test compounds may be administered i.v. (0.01-5 ml/kg), i.m. (0.01-0.5 ml/kg), s.c. (0.01-5 ml/kg) or p.o. (0.1-10 ml/kg) (Diehl et al., 2001; incorporated by reference herein). CGRP-receptor agonists may be delivered i.v. (0.01-5 ml/kg), i.d. (10-100 μl/site) or s.c. (10-100 μl/site).

T1 sequence (Q16602 23-461): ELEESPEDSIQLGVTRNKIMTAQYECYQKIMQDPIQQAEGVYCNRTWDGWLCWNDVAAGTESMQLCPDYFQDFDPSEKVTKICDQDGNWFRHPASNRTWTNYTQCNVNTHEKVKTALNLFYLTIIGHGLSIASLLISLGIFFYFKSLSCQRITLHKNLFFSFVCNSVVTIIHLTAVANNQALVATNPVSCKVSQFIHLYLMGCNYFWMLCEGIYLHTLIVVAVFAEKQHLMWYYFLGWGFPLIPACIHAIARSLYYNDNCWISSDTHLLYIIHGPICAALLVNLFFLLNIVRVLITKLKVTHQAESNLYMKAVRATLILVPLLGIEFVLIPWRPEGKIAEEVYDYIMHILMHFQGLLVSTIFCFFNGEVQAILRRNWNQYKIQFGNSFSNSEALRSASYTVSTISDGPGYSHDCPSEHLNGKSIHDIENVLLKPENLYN
T1 sequence (O60894 27-148): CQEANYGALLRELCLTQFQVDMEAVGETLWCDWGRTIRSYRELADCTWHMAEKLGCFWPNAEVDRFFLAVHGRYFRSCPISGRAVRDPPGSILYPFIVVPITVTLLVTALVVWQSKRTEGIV

Row | Molecule | slope [1] | EC50 [2] [nM] | % Inhibition of CGRP-induced increase in laser Doppler facial blood flow ([3]; 1 mg/kg) | % Inhibition of CGRP-induced increase in laser Doppler facial blood flow ([3]; 0.01 mg/kg) | % Inhibition of CGRP-induced increase in laser Doppler facial blood flow ([3]; 0.03 mg/kg) | % Inhibition of CGRP-induced increase in laser Doppler facial blood flow ([3]; 0.1 mg/kg) | % Inhibition of CGRP-induced increase in laser Doppler facial blood flow ([3]; 0.3 mg/kg) | inhibition of CGRP-induced increase in laser Doppler facial blood flow (in words) [3]
1 | O=C(NC(Cc1ccc2[nH]ncc2c1)C(=O)N1CCC(N2CCCCC2)CC1)N1CCC(N2Cc3ccccc3NC2=O)CC1 (racemic) [Example 6, (±)-4-(2-Oxo-1,4-dihydro-2H-quinazolin-3-yl)-piperidine-1-carboxylic acid[2-[1,4′]bipiperidinyl-1′-yl-1-(1H-indazol-5-ylmethyl)-2-oxo-ethyl]-amide] | 0.93 | < 10 | Z (Z>75%) |  |  |  |  | 
2 | O=C(N[C@H](Cc1ccc2[nH]ncc2c1)C(=O)N1CCC(N2CCCCC2)CC1)N1CCC(N2Cc3ccccc3NC2=O)CC1 [Example 2, (R)-4-(2-Oxo-1,4-dihydro-2H-quinazolin-3-yl)-piperidine-1-carboxylic acid[2-[1,4′]bipiperidinyl-1′-yl-1-(1H-indazol-5-ylmethyl)-2-oxo-ethyl]-amide] | 0.94 | < 10 | Z (Z>75%) | W (W≦25%) | X (25%<X≦50%) | X (25%<X≦50%) | Y (50%<Y≦75%) | dose-dependently inhibits
3 | hαCGRP(8-37): "the peptide antagonist hαCGRP(8-37)" [reference compound] |  |  | Z (Z>75%) |  |  |  |  | dose-dependently inhibited
